Laboratory results: ChEMBL document CHEMBL4130448, “Novel SERMs based on 3-aryl-4-aryloxy-2H-chromen-2-one skeleton - A possible way to dual ERα/VEGFR-2 ligands for treatment of breast cancer” (Eur J Med Chem, 2017)
pIC50: −log10 of the molar value.

Tests used:
MCF7 = assay: cells; conditions: Homo sapiens, MCF7, 48 h
Description: Cytotoxicity in human MCF7 cells assessed as inhibition of cell growth incubated for 48 hrs by MTT assay

[1] = target: Vascular endothelial growth factor receptor 2 (Homo sapiens) (UniProt P35968); assay: Inhibition of His-tagged human VEGFR2 at 40 uM incubated for 1 hr by HTRF assay
Sequence of Vascular endothelial growth factor receptor 2 (Homo sapiens) (P35968 whole entry): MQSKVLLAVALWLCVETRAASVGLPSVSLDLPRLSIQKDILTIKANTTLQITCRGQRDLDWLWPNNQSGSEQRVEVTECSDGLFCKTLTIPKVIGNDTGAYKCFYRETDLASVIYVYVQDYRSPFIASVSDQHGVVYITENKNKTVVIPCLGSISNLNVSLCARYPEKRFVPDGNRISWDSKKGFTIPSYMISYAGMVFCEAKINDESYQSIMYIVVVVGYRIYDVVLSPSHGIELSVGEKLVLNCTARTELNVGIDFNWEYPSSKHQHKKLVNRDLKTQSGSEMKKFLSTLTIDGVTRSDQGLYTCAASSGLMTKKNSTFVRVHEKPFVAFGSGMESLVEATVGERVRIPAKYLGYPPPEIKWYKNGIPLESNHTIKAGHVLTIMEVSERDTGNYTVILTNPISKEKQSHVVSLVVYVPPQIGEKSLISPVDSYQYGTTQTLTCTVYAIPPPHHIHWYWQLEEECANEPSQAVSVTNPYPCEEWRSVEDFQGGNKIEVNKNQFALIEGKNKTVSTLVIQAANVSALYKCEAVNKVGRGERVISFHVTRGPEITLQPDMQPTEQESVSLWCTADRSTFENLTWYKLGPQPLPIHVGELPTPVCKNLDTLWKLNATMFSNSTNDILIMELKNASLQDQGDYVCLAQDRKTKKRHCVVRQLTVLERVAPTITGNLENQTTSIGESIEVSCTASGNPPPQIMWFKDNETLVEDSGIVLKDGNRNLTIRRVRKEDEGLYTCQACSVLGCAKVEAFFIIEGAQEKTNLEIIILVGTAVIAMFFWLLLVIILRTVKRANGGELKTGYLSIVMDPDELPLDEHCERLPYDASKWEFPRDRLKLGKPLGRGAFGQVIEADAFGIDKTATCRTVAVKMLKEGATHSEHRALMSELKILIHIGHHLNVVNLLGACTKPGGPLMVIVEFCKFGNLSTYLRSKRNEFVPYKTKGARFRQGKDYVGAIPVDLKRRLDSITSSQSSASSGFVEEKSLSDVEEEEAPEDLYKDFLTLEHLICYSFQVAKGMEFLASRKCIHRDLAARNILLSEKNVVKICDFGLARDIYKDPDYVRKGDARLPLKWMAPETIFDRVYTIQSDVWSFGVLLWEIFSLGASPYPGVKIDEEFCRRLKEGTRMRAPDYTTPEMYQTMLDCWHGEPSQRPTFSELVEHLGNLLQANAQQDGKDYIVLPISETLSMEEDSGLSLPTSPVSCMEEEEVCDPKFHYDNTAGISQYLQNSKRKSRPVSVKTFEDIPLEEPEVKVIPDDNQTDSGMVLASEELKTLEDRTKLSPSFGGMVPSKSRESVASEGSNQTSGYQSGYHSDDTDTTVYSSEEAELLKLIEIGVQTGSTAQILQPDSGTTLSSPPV

Ishikawa = assay: cells; conditions: Homo sapiens, 48 h
Description: Cytotoxicity in human Ishikawa cells assessed as inhibition of cell growth incubated for 48 hrs by MTT assay

HUVEC = assay: Antiangiogenic activity against HUVEC incubated for 48 hrs by MTT assay; format: functional, cell-based; conditions: Homo sapiens
Estrogen receptor = target: T1, Estrogen receptor (Homo sapiens, UniProt P03372); assay: Displacement of fluorescent estrogen ligand from recombinant human ERalpha expressed in insect cells incubated for 2 hrs by polarization
T1 sequence (P03372 whole entry): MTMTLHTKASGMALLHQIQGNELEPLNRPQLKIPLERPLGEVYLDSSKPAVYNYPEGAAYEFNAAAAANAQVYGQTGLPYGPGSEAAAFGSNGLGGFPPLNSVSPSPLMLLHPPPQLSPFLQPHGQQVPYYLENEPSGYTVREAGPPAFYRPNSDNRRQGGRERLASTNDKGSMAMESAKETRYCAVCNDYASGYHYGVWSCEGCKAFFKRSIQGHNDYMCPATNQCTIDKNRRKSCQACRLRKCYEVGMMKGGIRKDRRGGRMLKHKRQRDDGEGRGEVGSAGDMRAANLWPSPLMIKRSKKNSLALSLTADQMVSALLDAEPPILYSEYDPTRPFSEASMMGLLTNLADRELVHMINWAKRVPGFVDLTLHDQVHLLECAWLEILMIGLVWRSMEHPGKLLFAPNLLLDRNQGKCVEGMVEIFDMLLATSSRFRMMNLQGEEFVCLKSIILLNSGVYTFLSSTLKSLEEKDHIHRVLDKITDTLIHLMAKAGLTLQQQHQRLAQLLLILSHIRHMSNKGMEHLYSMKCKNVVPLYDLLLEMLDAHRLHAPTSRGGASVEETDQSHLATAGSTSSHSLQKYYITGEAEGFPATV

| Compound | pIC50 (MCF7) | inhibition [1] [%] | pIC50 (Ishikawa) | pIC50 (HUVEC) | pIC50 (Estrogen receptor) |
| --- | --- | --- | --- | --- | --- |
| O=c1oc2cc(O)ccc2c(Nc2ccc(OCCN3CCCCC3)cc2)c1-c1ccc(O)cc1 | 4.73 | 83.2 | 4.61 | 4.51 | 5.42 |
| COc1ccc2c(Oc3ccc(OCCN(C)C)cc3)c(-c3ccc(F)cc3)c(=O)oc2c1 | 4.82 |  | 4.76 |  | 5.05 |
| O=c1oc2ccccc2c(Nc2ccc(OCCN3CCCC3)cc2)c1-c1ccc(F)cc1 | 4.58 |  | 4.59 |  | < 5.00 |
| CCN(CC)CCOc1ccc(Nc2c(-c3ccc(O)cc3)c(=O)oc3cc(O)ccc23)cc1 | 4.56 |  | 4.54 |  | 5.22 |
| CN(C)CCOc1ccc(Oc2c(-c3ccc(O)cc3)c(=O)oc3cc(O)ccc23)cc1 | 4.38 |  | 4.43 |  | 5.07 |
| COc1ccc(-c2c(Oc3ccc(OCCN4CCCC4)cc3)c3ccc(OC)cc3oc2=O)cc1 | 4.84 |  | 5.07 |  | < 5.00 |
| CCN(CC)CCOc1ccc(Oc2c(-c3ccc(F)cc3)c(=O)oc3cc(OC)ccc23)cc1 | 4.78 |  | 4.80 |  | < 5.00 |
| COc1ccc2c(Nc3ccc(OCCN(C)C)cc3)c(-c3ccc(F)cc3)c(=O)oc2c1 | 4.50 |  | 4.87 |  | < 5.00 |
| COc1ccc2c(Nc3ccc(OCCN4CCCC4)cc3)c(-c3ccc(F)cc3)c(=O)oc2c1 | 4.67 |  | 4.90 |  | < 5.00 |
| CCN(CC)CCOc1ccc(Nc2c(-c3ccc(F)cc3)c(=O)oc3cc(O)ccc23)cc1 | 4.76 |  | 4.76 |  | 5.36 |
| COc1ccc2c(Nc3ccc(OCCN4CCCCC4)cc3)c(-c3ccc(F)cc3)c(=O)oc2c1 | 4.90 | 66 | 5.06 | 5.04 | 5.10 |
| COc1ccc(-c2c(Oc3ccc(OCCN(C)C)cc3)c3ccc(OC)cc3oc2=O)cc1 | 4.75 |  | 4.94 |  | < 5.00 |
| COc1cc2/c(=N/c3ccc(Br)cc3F)nc[nH]c2cc1OCC1CCN(C)CC1 [VANDETANIB] | 4.78 | 95.7 |  | 5.17 |  |
| CCN(CC)CCOc1ccc(Oc2c(-c3ccc(O)cc3)c(=O)oc3cc(O)ccc23)cc1 | < 4.30 |  | < 4.30 |  | < 5.00 |
| O=c1oc2cc(O)ccc2c(Nc2ccc(OCCN3CCCCC3)cc2)c1-c1ccc(F)cc1 | 5.15 | 88.4 | 4.98 | 5.00 | 5.41 |
| CCN(CC)CCOc1ccc(Nc2c(-c3ccc(F)cc3)c(=O)oc3ccccc23)cc1 | 4.58 |  | 4.61 |  | < 5.00 |
| CN(C)CCOc1ccc(Nc2c(-c3ccc(F)cc3)c(=O)oc3cc(O)ccc23)cc1 | 4.71 |  | 4.60 |  | 5.18 |
| COc1ccc2c(Oc3ccc(OCCN4CCCCC4)cc3)c(-c3ccc(F)cc3)c(=O)oc2c1 | 5.03 | 55.1 | 5.08 | 4.87 | 5.16 |
